Experimental data as given in the supplement of paper PMC12463676, “Small-molecule dissolution of stress granules by redox modulation benefits ALS models” (Nature Chemical Biology, 2025).

Key:
[1] = compound: O=[As]([O-])(O)O.[K+] [potassium arsenate]; experiment: thermal stability z-score vs DMSO; higher = more thermally stabilized by treatment; conditions: HeLa; arsenate concentration 1 mM
Description: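 Cellular thermal proteome profiling in HeLa cells treated with 1 mM arsenate for 1 h (DMSO pretreatment), heated to ten temperatures (37-66.3 °C). Soluble protein was quantified by TMT mass spectrometry relative to DMSO controls; the thermal stability score was transformed to a z-score; mean of n = 3 experiments.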

[2] = compound: NC(=O)CCCCC1CCSS1 [lipoamide]; experiment: as above; conditions: HeLa, lipoamide concentration 100 µM
Description: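 Cellular thermal proteome profiling in HeLa cells. Cells were treated with 100 µM lipoamide for 1 h, with or without 1 mM arsenate for a further 1 h, then heated to ten temperatures (37-66.3 °C), and soluble protein was quantified by TMT mass spectrometry relative to 0.1% DMSO controls. The thermal stability score (sum of log2 fold changes minus the abundance score) was transformed to a z-score; mean of n = 3 experiments.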

[3] = arsenate co-treatment: 1 mM arsenate 1 h
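Note: each temperature applied for 3 min, abundance score taken as mean log2 fold change at the two lowest temperatures, z-score obtained by mean subtraction and division by SD.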

UniProt O94992, sequence (O94992 whole entry): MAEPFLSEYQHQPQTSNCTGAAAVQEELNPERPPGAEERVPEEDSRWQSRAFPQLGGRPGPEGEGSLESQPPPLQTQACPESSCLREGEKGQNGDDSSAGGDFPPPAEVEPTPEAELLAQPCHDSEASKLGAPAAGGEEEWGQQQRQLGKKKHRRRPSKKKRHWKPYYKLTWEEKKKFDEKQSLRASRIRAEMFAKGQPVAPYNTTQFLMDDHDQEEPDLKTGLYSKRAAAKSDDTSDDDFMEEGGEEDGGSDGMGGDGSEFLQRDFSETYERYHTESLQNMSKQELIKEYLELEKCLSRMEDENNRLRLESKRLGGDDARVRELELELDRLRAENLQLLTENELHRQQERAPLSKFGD
UniProt Q9NQS3, sequence (Q9NQS3 whole entry, looked up): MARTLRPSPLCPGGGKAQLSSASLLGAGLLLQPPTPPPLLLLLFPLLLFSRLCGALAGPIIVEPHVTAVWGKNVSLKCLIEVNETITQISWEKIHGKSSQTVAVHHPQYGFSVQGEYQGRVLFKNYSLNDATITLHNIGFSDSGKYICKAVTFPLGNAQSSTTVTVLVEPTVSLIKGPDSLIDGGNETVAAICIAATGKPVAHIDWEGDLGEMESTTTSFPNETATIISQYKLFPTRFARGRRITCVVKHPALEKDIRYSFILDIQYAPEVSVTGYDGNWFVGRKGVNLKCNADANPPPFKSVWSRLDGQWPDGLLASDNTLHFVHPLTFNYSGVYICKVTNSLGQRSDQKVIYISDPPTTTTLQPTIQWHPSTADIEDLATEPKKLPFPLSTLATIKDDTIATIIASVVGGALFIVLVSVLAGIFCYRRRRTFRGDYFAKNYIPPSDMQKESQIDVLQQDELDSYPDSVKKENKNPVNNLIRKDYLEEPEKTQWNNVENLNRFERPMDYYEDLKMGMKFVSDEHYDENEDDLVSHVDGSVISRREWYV
UniProt Q14457, sequence (Q14457 whole entry): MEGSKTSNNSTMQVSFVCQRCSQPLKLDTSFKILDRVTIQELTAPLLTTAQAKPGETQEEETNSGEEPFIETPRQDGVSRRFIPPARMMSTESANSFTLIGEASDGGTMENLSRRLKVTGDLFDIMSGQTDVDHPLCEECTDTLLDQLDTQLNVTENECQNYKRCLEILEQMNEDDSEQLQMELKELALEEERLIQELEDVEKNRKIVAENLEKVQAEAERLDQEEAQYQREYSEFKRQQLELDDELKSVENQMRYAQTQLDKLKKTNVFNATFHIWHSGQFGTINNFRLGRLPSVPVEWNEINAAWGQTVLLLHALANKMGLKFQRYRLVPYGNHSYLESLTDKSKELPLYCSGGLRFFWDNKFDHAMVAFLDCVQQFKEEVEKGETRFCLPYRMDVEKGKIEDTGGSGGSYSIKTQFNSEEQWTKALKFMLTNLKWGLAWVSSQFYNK
UniProt Q13098, sequence (Q13098 whole entry): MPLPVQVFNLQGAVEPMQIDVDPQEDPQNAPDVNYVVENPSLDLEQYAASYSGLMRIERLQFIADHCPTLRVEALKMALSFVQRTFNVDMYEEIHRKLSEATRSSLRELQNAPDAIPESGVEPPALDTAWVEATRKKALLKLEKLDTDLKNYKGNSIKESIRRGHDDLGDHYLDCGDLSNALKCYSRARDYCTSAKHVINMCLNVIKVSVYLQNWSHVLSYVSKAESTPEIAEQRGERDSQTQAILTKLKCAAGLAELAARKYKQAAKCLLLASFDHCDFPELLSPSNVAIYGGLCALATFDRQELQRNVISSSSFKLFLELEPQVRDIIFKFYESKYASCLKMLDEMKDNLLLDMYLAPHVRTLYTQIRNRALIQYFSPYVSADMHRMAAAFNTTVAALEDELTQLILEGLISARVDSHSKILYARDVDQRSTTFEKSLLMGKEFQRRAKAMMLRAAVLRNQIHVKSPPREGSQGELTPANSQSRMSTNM
UniProt Q9NPJ3, sequence (Q9NPJ3 whole entry): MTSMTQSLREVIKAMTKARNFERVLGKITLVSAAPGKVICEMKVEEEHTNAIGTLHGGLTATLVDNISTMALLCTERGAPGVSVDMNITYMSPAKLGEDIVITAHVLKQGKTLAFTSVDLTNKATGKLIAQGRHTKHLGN
UniProt Q5SW79, sequence (Q5SW79 whole entry): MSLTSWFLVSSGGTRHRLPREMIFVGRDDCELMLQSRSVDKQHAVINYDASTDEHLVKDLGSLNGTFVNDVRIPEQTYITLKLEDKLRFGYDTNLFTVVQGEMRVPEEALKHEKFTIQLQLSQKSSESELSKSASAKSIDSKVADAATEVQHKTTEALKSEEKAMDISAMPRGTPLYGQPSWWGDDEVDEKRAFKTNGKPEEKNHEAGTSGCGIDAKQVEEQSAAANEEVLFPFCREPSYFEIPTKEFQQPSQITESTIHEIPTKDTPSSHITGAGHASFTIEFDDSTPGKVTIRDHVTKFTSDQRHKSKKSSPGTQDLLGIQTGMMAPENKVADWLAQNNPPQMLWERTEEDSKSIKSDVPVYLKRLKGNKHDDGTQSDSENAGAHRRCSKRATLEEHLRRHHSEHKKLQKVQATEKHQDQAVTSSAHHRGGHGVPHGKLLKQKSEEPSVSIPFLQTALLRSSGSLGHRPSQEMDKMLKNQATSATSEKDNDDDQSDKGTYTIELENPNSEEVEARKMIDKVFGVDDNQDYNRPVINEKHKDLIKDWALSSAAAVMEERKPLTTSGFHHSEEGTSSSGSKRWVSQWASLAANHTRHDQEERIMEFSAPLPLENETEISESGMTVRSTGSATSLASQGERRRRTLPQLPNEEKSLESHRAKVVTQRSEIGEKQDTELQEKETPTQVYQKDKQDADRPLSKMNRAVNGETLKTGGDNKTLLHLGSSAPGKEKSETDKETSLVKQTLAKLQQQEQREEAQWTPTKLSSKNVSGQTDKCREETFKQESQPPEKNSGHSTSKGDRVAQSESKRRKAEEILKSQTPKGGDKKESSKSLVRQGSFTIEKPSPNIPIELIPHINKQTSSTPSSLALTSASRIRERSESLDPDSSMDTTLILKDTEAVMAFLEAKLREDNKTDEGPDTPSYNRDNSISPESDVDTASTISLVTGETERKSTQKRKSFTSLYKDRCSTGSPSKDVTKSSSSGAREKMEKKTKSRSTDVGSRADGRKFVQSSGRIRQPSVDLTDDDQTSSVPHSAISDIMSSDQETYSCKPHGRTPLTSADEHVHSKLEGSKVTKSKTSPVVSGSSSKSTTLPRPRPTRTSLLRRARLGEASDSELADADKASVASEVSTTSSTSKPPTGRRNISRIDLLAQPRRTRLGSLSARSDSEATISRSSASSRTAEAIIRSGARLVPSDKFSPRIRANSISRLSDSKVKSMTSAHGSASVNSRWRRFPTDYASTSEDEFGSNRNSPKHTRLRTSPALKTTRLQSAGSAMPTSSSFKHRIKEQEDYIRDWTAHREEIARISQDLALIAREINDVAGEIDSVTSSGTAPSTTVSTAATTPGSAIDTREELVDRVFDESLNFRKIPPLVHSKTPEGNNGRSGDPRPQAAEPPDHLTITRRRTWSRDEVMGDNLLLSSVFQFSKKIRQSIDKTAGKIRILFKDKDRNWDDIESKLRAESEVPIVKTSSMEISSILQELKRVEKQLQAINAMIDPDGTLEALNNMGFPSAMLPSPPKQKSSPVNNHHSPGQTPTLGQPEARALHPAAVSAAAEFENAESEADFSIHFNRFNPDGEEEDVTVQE
UniProt Q86U44, sequence (Q86U44 whole entry): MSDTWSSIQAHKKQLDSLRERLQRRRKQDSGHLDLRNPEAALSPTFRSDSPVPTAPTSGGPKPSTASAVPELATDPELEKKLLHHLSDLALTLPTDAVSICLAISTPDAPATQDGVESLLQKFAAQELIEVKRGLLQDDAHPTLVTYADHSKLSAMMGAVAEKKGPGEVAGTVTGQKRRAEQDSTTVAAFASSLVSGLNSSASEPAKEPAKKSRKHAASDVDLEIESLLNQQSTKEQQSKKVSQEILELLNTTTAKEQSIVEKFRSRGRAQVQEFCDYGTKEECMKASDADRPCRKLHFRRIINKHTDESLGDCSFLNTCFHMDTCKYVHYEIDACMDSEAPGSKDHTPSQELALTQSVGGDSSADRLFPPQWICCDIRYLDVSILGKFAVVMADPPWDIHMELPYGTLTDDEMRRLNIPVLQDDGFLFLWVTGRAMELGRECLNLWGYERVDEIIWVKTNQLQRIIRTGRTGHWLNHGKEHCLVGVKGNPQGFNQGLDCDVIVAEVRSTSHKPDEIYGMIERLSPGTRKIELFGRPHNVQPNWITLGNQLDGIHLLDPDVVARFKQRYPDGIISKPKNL
UniProt P43243, sequence (P43243 whole entry): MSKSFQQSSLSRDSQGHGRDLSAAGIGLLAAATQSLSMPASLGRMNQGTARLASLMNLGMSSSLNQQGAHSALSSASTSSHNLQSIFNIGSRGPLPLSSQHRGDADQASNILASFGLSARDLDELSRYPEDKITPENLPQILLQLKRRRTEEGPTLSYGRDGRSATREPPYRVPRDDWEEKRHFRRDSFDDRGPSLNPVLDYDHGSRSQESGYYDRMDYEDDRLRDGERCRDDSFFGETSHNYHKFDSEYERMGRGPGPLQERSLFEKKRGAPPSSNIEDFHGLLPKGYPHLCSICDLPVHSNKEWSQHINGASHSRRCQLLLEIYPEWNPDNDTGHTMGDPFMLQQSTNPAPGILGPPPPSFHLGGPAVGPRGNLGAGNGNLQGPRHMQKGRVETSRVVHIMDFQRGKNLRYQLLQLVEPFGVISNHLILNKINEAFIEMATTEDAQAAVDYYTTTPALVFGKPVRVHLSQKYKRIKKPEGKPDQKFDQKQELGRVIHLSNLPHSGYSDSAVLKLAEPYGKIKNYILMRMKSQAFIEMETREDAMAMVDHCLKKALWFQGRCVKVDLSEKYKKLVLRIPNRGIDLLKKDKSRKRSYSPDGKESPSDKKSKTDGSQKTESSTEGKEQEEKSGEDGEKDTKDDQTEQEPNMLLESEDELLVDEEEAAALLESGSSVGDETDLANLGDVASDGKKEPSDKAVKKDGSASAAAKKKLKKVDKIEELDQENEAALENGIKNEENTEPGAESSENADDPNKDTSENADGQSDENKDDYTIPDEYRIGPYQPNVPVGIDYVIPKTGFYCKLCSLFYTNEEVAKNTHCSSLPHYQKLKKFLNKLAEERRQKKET

Target	thermal stability z-score [1]	thermal stability z-score [2, 3]	thermal stability z-score ([2]; arsenate co-treatment: none)
PRMT1 (UniProt Q99873)	-0.12	0.147	0.262
TIFA (UniProt Q96CG3)	-0.879	-0.71	-0.0546
GSN (UniProt P06396)	0.0381	0.0431	-0.257
EDEM2 (UniProt Q9BV94)	0.127	0.18	0.234
WDR6 (UniProt Q9NNW5)	0.0479	-0.00677	0.325
HEXIM1 (UniProt O94992)	0.384	0.736	0.591
RPL36 (UniProt Q9Y3U8)	-1.19	0.354	-0.0802
NDRG1 (UniProt Q92597)	-1.31	-0.311	-0.62
ATG4C (UniProt Q96DT6)	0.0488	0.0282	0.0873
TOP3A (UniProt Q13472)	-0.457	-0.152	0.21
ERGIC2 (UniProt Q96RQ1)	-0.232	-0.942	-0.866
SCAF8 (UniProt Q9UPN6)	0.155	-0.0718	-0.03
AHCYL1 (UniProt O43865)	-6.61	0.156	-0.134
POLE4 (UniProt Q9NR33)	-1.07	0.919	0.928
SGTA (UniProt O43765)	0.149	0.332	0.487
PAGR1 (UniProt Q9BTK6)	-0.194	0.263	-0.446
SRA1 (UniProt Q9HD15)	0.51	0.911	0.998
HINT3 (UniProt Q9NQE9)	-1.57	0.23	0.339
ACOT13 (UniProt Q9NPJ3)	-0.202	-0.279	-0.198
PPAT (UniProt Q06203)	-0.0713	0.306	0.28
CLPP (UniProt Q16740)	0.151	0.049	-0.299
TANC2 (UniProt Q9HCD6)	-0.0159	-0.0889	-0.116
GPS1 (UniProt Q13098)	0.904	0.881	0.892
PLBD2 (UniProt Q8NHP8)	0.464	-0.0663	0.0581

Target	thermal stability z-score [1]	thermal stability z-score [2, 3]	thermal stability z-score ([2]; arsenate co-treatment: none)
NELFB (UniProt Q8WX92)	-0.0666	-0.286	0.576
EEF2KMT (UniProt Q96G04)	0.0729	0.0521	0.046
TBK1 (UniProt Q9UHD2)	-0.00763	-0.607	-0.189
PINX1 (UniProt Q96BK5)	-2.03	-0.717	-0.225
AP2A2 (UniProt O94973)	-0.337	-0.0644	-0.149
SLC25A36 (UniProt Q96CQ1)	-0.241	0.659	0.329
PPID (UniProt Q08752)	0.368	0.244	-0.234
NKRF (UniProt O15226)	-0.311	-0.0267	0.00359
PHF5A (UniProt Q7RTV0)	-5.28	0.703	0.339
PTDSS1 (UniProt P48651)	-0.375	-1.63	-1.23
ACTR6 (UniProt Q9GZN1)	-0.13	0.151	-0.182
RPL32 (UniProt P62910)	-0.93	0.158	-0.028
KIDINS220 (UniProt Q9ULH0)	0.0983	-0.105	0.516
CEP170 (UniProt Q5SW79)	1.21	-0.0596	-0.496
PIH1D1 (UniProt Q9NWS0)	0.538	1.07	0.114
RHOA (UniProt P61586)	0.103	0.316	0.411
MOB1B|MOB1A	0.896	1.02	0.33
NECTIN3 (UniProt Q9NQS3)	0.432	-0.126	-0.303
HERC4 (UniProt Q5GLZ8)	0.726	0.298	-0.11
PRDX3 (UniProt P30048)	-0.448	0.429	0.812
CNNM2 (UniProt Q9H8M5)	-0.152	0.397	0.656
TBCC (UniProt Q15814)	-0.00724	-0.35	-0.196
TUBGCP6 (UniProt Q96RT7)	0.0497	0.0893	0.0666
NCEH1 (UniProt Q6PIU2)	-0.34	-0.5	-0.83

Target	thermal stability z-score [1]	thermal stability z-score [2, 3]	thermal stability z-score ([2]; arsenate co-treatment: none)
METTL3 (UniProt Q86U44)	0.165	-0.16	0.0119
ATF7IP (UniProt Q6VMQ6)	-0.304	0.974	0.0822
FTH1 (UniProt P02794)	-2.18	0.266	0.204
DPH7 (UniProt Q9BTV6)	0.093	-1.62	0.272
ESD (UniProt P10768)	0.445	-0.53	-0.395
SCP2 (UniProt P22307)	-0.257	0.374	0.0992
PRIM2 (UniProt P49643)	-0.113	0.176	-0.165
BECN1 (UniProt Q14457)	-0.408	-0.39	-0.238
CDC5L (UniProt Q99459)	-0.167	0.945	0.573
RPL9 (UniProt P32969)	-0.232	0.762	0.659
PLS3 (UniProt P13797)	-0.117	0.368	0.603
MED16 (UniProt Q9Y2X0)	-0.0825	-0.0673	0.0989
PXN (UniProt P49023)	-2	-0.261	-0.432
PRC1 (UniProt O43663)	-0.601	-0.144	-0.106
OTUD4 (UniProt Q01804)	0.258	0.168	0.183
NEDD1 (UniProt Q8NHV4)	0.216	0.124	0.153
RPP21 (UniProt Q9H633)	-0.209	-0.411	-0.242
RPUSD2 (UniProt Q8IZ73)	0.29	-0.528	0.461
ACSL1 (UniProt P33121)	0.682	0.922	0.82
COQ5 (UniProt Q5HYK3)	1.52	0.471	0.639
KDM5C (UniProt P41229)	-0.2	0.0486	-0.0414
HDHD2 (UniProt Q9H0R4)	-0.185	0.338	0.00313
SPC25 (UniProt Q9HBM1)	0.191	0.989	-0.483
MATR3 (UniProt P43243)	-1.69	2.1	0.607
